From patent publication US20240050428A1 (Cullgen (Shanghai), Inc., priority 2020, published 2024)
pIC50: −log10 of the molar value. Read-outs that look alike come from different tables or passages of the source.

Legend:
[1] = test system: MV4;11 cells; experiment: Cell viability assay (CellTiter-Glo) in MV4;11 cells, alone or with gilteritinib; type: cell-based; details: read-out: MV4
[2] = test system: MOLM-13 cells; experiment: Cell viability assay (CellTiter-Glo) in MOLM-13 cells, alone or with gilteritinib; type: cell-based
[3] = Homo sapiens, MV4-11, 72 h, MV4;11 cells, with 10 nM gilteritinib, 3 days, CellTiter-Glo, 11 IC50 gilteritinib
[4] = Homo sapiens, MV4-11, 72 h, MV4;11 cells, without gilteritinib, 3 days, CellTiter-Glo, 11 IC50
[5] = Homo sapiens, MOLM-13, 72 h, MOLM-13 cells, with 20 nM gilteritinib, 3 days, CellTiter-Glo, read-out: MOLM-13 IC50 gilteritinib
[6] = Homo sapiens, MOLM-13, 72 h, MOLM-13 cells, without gilteritinib, 3 days, CellTiter-Glo, read-out: MOLM-13 IC50

SMILES	pIC50 [1, 3]	pIC50 [1, 4]	pIC50 [2, 5]	pIC50 [2, 6]	further results
O=C1CCC(N2C(=O)c3ccc(NCCCN4CC(N5CCN(c6ccccn6)CC5)C4)cc3C2=O)C(=O)N1 (centres unmarked)	–	–	–	–	pIC50 ([1]; Homo sapiens, 72 h, MV4;11 cells, compound alone (without gilteritinib), three days, CellTiter-Glo, 11 IC50): < 6.00; pIC50 ([1]; Homo sapiens, 72 h, MV4;11 cells, with gilteritinib 10 nM, three days, CellTiter-Glo, 11 IC50 gilteritinib): < 6.00; pIC50 ([2]; Homo sapiens, 72 h, MOLM-13 cells, compound alone (without gilteritinib), three days, CellTiter-Glo, read-out: MOLM-13 IC50): < 6.00; pIC50 ([2]; Homo sapiens, 72 h, MOLM-13 cells, with gilteritinib 20 nM, three days, CellTiter-Glo, read-out: MOLM-13 IC50 gilteritinib): 7.00 to 8.00
O=C1CCC(N2Cc3cc(CNC(=O)C(F)(F)c4ccc(Cl)cc4)ccc3C2=O)C(=O)N1 (centres unmarked) [CC-90009, reference compound]	–	–	–	–	pIC50 ([1]; MV4;11 cells, with 10 nM gilteritinib, 3 days, CellTiter-Glo, 11 IC50 gilteritinib): 8.15; pIC50 ([1]; MV4;11 cells, without gilteritinib, 3 days, CellTiter-Glo, 11 IC50): 7.27; pIC50 ([2]; MOLM-13 cells, with 20 nM gilteritinib, 3 days, CellTiter-Glo, read-out: MOLM-13 IC50 gilteritinib): 8.07; pIC50 ([2]; MOLM-13 cells, without gilteritinib, 3 days, CellTiter-Glo, read-out: MOLM-13 IC50): 6.99
O=C1CCC(N2C(=O)c3ccc(NCCCCCC(=O)N4CCCCC4)cc3C2=O)C(=O)N1 (centres unmarked) [GS-001, 2-(2,6-Dioxopiperidin-3-yl)-5-((6-oxo-6-(piperidin-1-yl)hexyl)amino)isoindoline-1,3-dione]	< 5.00	5.32	7.57	6.52	–
O=C1CCC(N2C(=O)c3ccc(NCCCCCC(=O)N4CCC(n5cccn5)CC4)cc3C2=O)C(=O)N1 (centres unmarked) [GS-003, 5-((6-(4-(1H-Pyrazol-1-yl)piperidin-1-yl)-6-oxohexyl)amino)-2-(2,6-dioxopiperidin-3-yl)isoindoline-1,3-dione]	6.72	< 5.00	6.99	< 5.00	–
O=C1CCC(N2Cc3cc(CNC(=O)C(F)(F)c4cccc(N5CCC(n6cc(-c7cnc8cccc(Br)c8n7)cn6)CC5)c4)ccc3C2=O)C(=O)N1 (centres unmarked) [GS-004, 2-(3-(4-(4-(8-bromoquinoxalin-2-yl)-1H-pyrazol-1-yl)piperidin-1-yl)phenyl)-N-((2-(2,6-dioxopiperidin-3-yl)-1-oxoisoindolin-5-yl)methyl)-2,2-difluoroacetamide]	9.30	8.89	9.70	8.68	–
O=C1CCC(N2Cc3cc(CNC(=O)C(F)(F)CCC(=O)N4CCC(n5cc(-c6cnc7cccc(Br)c7n6)cn5)CC4)ccc3C2=O)C(=O)N1 (centres unmarked) [GS-007, 5-(4-(4-(8-bromoquinoxalin-2-yl)-1H-pyrazol-1-yl)piperidin-1-yl)-N-((2-(2,6-dioxopiperidin-3-yl)-1-oxoisoindolin-5-yl)methyl)-2,2-difluoro-5-oxopentanamide]	8.00	6.77	7.49	6.75	–
O=C1CCC(N2C(=O)c3ccc(NCCCCCC(=O)N4CCC(n5cc(C6CNc7ccccc7N6)cn5)CC4)cc3C2=O)C(=O)N1 (centres unmarked) [GS-008, 2-(2,6-Dioxopiperidin-3-yl)-5-((6-oxo-6-(4-(4-(1,2,3,4-tetrahydroquinoxalin-2-yl)-1H-pyrazol-1-yl)piperidin-1-yl)hexyl)amino)isoindoline-1,3-dione]	7.57	6.35	7.85	7.11	–
O=C1CCC(N2C(=O)c3ccc(NCCCCCC(=O)N4CCC(n5cc(-c6cnccn6)cn5)CC4)cc3C2=O)C(=O)N1 (centres unmarked) [GS-009, 2-(2,6-Dioxopiperidin-3-yl)-5-((6-oxo-6-(4-(4-(pyrazin-2-yl)-1H-pyrazol-1-yl)piperidin-1-yl)hexyl)amino)isoindoline-1,3-dione]	7.66	6.53	7.74	7.46	–
O=C1CCC(N2C(=O)c3ccc(NCCCCCC(=O)N4CCC(c5ccccc5)CC4)cc3C2=O)C(=O)N1 (centres unmarked) [GS-010, 2-(2,6-Dioxopiperidin-3-yl)-5-((6-oxo-6-(4-phenylpiperidin-1-yl)hexyl)amino)isoindoline-1,3-dione]	–	–	–	–	pIC50 ([1]; Homo sapiens, MV4-11, 72 h, 11 IC50): 7.77; pIC50 ([1]; Homo sapiens, MV4-11, 72 h, 11 IC50 gilteritinib): 8.64; pIC50 ([2]; Homo sapiens, MOLM-13, 72 h, read-out: MOLM-13 IC50): 8.52; pIC50 ([2]; Homo sapiens, MOLM-13, 72 h, read-out: MOLM-13 IC50 gilteritinib): 9.52
O=C1CCC(N2C(=O)c3ccc(NCCCCCC(=O)N4CCC(N5CCOCC5)CC4)cc3C2=O)C(=O)N1 (centres unmarked) [GS-011, 2-(2,6-Dioxopiperidin-3-yl)-5-((6-(4-morpholinopiperidin-1-yl)-6-oxohexyl)amino)isoindoline-1,3-dione]	< 5.00	< 5.00	6.57	< 5.00	–
O=C1CCC(N2C(=O)c3ccc(NCCCCCC(=O)N4CCC(N5CCCCC5)CC4)cc3C2=O)C(=O)N1 (centres unmarked) [GS-012, 5-((6-([1,4′-Bipiperidin]-1′-yl)-6-oxohexyl)amino)-2-(2,6-dioxopiperidin-3-yl)isoindoline-1,3-dione]	< 5.00	< 5.00	6.51	< 5.00	–
